Test results: patent US8283373B2, “Inhibitors of cytosolic phospholipase A2” (Pfizer Inc., priority 2005, dated 2012)

Legend:
[1] = tested on: TXB2; experiment: Rat Whole Blood Assay (A23187-stimulated TXB2); format: cell-based; conditions: Rattus norvegicus; A23187 5 μM
Method: Fresh blood was collected in heparinized tubes by cardiac puncture of male Sprague-Dawley rats. Aliquots of blood (0.6 mL) were incubated with either 6 μL solvent (DMSO), or 6 μL of test compounds at various concentrations for 15 minutes at 37° C. This was followed by incubation of the blood with 6 μL of calcium ionophore, A23187 (Sigma C-7522) diluted in DMSO for 10 min at 37° C. The final concentration of A23187 was 5 μM. DMSO (6 μL) was added in the unstimulated controls. The reactions were stopped by mixing 60 μL cold EDTA to give a final concentration of 20 mM. The blood was centrifuged at 6,500 rpm for 10 min on a microcentrifuge to obtain plasma. A 70 μL aliquot of plasma was mixed with 400 μL cold methanol for protein precipitation. After incubation at −80° C. for 30 min, the supernatant was obtained by centrifuging at 6,500 rpm for 10 min, and was assayed for TXB2 according to the manufacturer's procedure (Assay Designs, Inc.'s ELISA kit #900-002).

[2] = molecular target: T1, cPLA2α (Homo sapiens, UniProt P47712); experiment: GLU Micelle Assay; format: biochemical
T1 sequence (P47712 1-749): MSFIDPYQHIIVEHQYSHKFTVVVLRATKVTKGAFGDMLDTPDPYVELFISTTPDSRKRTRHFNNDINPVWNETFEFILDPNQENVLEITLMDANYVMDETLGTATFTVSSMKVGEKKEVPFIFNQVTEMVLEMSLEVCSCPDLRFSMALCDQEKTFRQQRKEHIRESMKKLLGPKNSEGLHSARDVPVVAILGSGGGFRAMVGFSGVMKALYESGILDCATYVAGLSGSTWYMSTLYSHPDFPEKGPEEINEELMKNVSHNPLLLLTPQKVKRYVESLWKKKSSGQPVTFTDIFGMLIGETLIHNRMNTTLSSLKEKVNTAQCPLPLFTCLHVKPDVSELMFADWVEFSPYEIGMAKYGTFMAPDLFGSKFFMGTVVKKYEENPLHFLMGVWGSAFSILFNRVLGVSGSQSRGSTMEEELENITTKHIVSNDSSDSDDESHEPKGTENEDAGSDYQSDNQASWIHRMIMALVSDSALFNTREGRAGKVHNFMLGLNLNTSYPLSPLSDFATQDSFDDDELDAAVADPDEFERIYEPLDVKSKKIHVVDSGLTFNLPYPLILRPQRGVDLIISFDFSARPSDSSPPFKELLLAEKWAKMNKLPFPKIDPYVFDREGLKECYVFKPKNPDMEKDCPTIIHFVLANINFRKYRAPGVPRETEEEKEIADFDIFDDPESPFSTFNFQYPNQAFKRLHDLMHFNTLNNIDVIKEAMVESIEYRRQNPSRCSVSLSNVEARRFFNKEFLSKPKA
Method: The assay was carried in a 96-well format using a fluorescent plate reader with a 355 nm excitation filter and a 460 nm emission filter (Lab Systems Fluoroscan II, Helsinki, Finland). The assay buffer contained 940 μM Triton X-100, 50 mM Hepes pH 7.4, 0.3 mM EDTA, 1 mM CaCl2 and 300 mM KCl. DTPC (1,2-O-tetradecyl-sn-glycero-3-phosphocholine, Avanti) at a final concentration of 120 μM was added the day of the experiment and GLU (7-Hydroxycoumarinyl-γ-linolenate, Biomol Research Lab, Inc.) at a final concentration of 90 μM was added immediately prior to each assay.
Compounds (10 μL) dissolved in DMSO were placed in duplicate wells of a black 96-well plate. Wells corresponding to the positive and negative controls contained DMSO without inhibitors. Just prior to the experiment, 200 μL assay buffer containing 90 μM GLU and 120 μM DTPC was added to all wells in the assay plate. Assay buffer (50 μL) was added to the negative, and 50 μL cPLA2α solution ([…] in assay buffer) was added to all other wells to initiate the reaction. The final concentration of enzyme was 1 μg/ml. The content of each well was mixed gently during the addition of the enzyme, and the plate was rapidly transferred to the fluorescent plate reader. The increase in fluorescence was read every 4 min for 84 min. The slope of the resulting line was determined and the inhibition was calculated using the equation below: Percent Inhibition=[1−(slope with inhibitor−slope negative control)/(slope positive control−slope negative control)]×100 Rat Whole Blood Assay

[3] = tested on: primary cerebellar granule neurons; experiment: Oxygen-glucose deprivation (OGD) in cultured cerebellar granule neurons; format: cell-based, rat; conditions: for percent cell death (lactate dehydrogenase release), Avg.: OGD 2 hours, control 14, OGD 51
Method: Primary cerebellar granule neurons were isolated from P5-8 rat pups. Briefly, cerebelli were collected and pooled in ice-cold phosphate buffer saline (PBS) without Ca^2+ and Mg^2+. The tissue was finely chopped and transferred to an enzymatic dissociation media containing 20 IU/ml papain in Earle's balanced salt solution (Worthington Biochemical, Freehold, N.J.) and incubated for 30 minutes at 37° C. After enzymatic dissociation, the papain solution was aspirated and the tissue mechanically triturated with a fire-polished Pasteur pipette in complete media [Neurobasal Medium with B-27 supplement (Gibco, Grand Island, N.Y.), penicillin/streptomycin, aphidicolin, glutamate, potassium chloride] containing 2,000 IU/ml DNase and 10 mg/ml ovomucoid protease inhibitor. Single-cell suspensions in complete media were plated on pre-coated poly-L-ornithine/laminin 24-well plates (Becton-Dickinson, Bedford, Mass.) at a density of
5.0×10^5 cells/well. Cells were maintained for two weeks prior to experimentation.
Cultures were treated with Compound A at various concentrations, 60 minutes before OGD. Media was removed and replaced with deoxygenated buffer in an anaerobic chamber (80% nitrogen, 10% hydrogen, 10% carbon dioxide gas mixture). Fresh Compound A, Example 34 or Example 41 was added to the cultures and maintained in the anaerobic chamber for 2 hours. At the end of the incubation, fresh media was exchanged and fresh Compound A was added. Cultures were maintained for an additional 24 hours in a normoxic incubator. Cell death was determined by measuring lactate dehydrogenase release into the media 24 hours later (Roche Biochemicals). In the table below, values are shown for the control, OGD, various concentrations of Compound A, and MK801, a NMDA receptor antagonist, which is a positive control.

Row | Structure (SMILES) | IC50 [1] | IC50 [2] | other results
1 | O=C(O)c1ccc(CCCc2c(CCNS(=O)(=O)Cc3ccccc3F)n(C(c3ccccc3)c3ccccc3)c3ccc(Cl)cc23)cc1 [Example 28, 4-{3-[5-chloro-1-(diphenylmethyl)-2-(2-{[(2-fluorobenzyl)sulfonyl]amino}ethyl)-1H-indol-3-yl]propyl}benzoic acid] | 0.03 µM | 0.03 µM | –
2 | O=C(O)c1ccc(CCCc2c(CCNS(=O)(=O)Cc3ccccc3-c3ccccc3)n(C(c3ccccc3)c3ccccc3)c3ccc(Cl)cc23)cc1 [Example 29, 4-{3-[2-(2-{[(biphenyl-2-ylmethyl)sulfonyl]amino}ethyl)-5-chloro-1-(diphenylmethyl)-1H-indol-3-yl]propyl}benzoic acid] | 0.05 µM | 0.018 µM | –
3 | O=C(O)c1ccc(CCCc2c(CCNS(=O)(=O)Cc3ccccc3-c3ccncc3)n(C(c3ccccc3)c3ccccc3)c3ccc(Cl)cc23)cc1 [Example 30, 4-{3-[5-chloro-1-(diphenylmethyl)-2-(2-{[(2-pyridin-4-ylbenzyl)sulfonyl]amino}ethyl)-1H-indol-3-yl]propyl}benzoic acid] | 0.06 µM | 0.021 µM | –
4 | O=C(O)c1ccc(CCCc2c(CCNS(=O)(=O)Cc3ccccc3-c3ccsc3)n(C(c3ccccc3)c3ccccc3)c3ccc(Cl)cc23)cc1 [Example 32, 4-(3-{5-chloro-1-(diphenylmethyl)-2-[2-({[2-(3-thienyl)benzyl]sulfonyl}amino)ethyl]-1H-indol-3-yl}propyl)benzoic acid] | 0.05 µM | 0.013 µM | –
5 | CN(C)c1ccc(-c2ccccc2CS(=O)(=O)NCCc2c(CCCc3ccc(C(=O)O)cc3)c3cc(Cl)ccc3n2C(c2ccccc2)c2ccccc2)cc1 [Example 35, 4-{3-[5-chloro-2-{2-[({[4′-(dimethylamino)biphenyl-2-yl]methyl}sulfonyl)amino]ethyl}-1-(diphenylmethyl)-1H-indol-3-yl]propyl}benzoic acid] | 0.05 µM | 0.027 µM | –
6 | N#Cc1ccccc1-c1ccccc1CS(=O)(=O)NCCc1c(CCCc2ccc(C(=O)O)cc2)c2cc(Cl)ccc2n1C(c1ccccc1)c1ccccc1 [Example 37, 4-{3-[5-chloro-2-[2-({[(2′-cyanobiphenyl-2-yl)methyl]sulfonyl}amino)ethyl]-1-(diphenylmethyl)-1H-indol-3-yl]propyl}benzoic acid] | 0.03 µM | 0.025 µM | –
7 | O=C(O)CCc1ccc(S(=O)(=O)CCc2c(CCNS(=O)(=O)Cc3ccccc3C(F)(F)F)n(C(c3ccccc3)c3ccccc3)c3ccc(Cl)cc23)cc1 [Example 38, 3-{4-[(2-{5-chloro-1-(diphenylmethyl)-2-[2-({[2-(trifluoromethyl)benzyl]sulfonyl}amino)ethyl]-1H-indol-3-yl}ethyl)sulfonyl]phenyl}propanoic acid] | 0.01 µM | 0.007 µM | –

Further lines, with some results ahead:

Row | IC50 [1] | IC50 [2] | Structure (SMILES) | other results
8 | 0.03 µM | 0.038 µM | O=C(O)c1ccc(CCCc2c(CCNS(=O)(=O)Cc3c([N+](=O)[O-])cccc3C(F)(F)F)n(C(c3ccccc3)c3ccccc3)c3ccc(Cl)cc23)cc1 [Example 27, 4-(3-{5-chloro-1-(diphenylmethyl)-2-[2-({[2-nitro-6-(trifluoromethyl)benzyl]sulfonyl}amino)ethyl]-1H-indol-3-yl}propyl)benzoic acid] | –
9 | 0.04 µM | 0.016 µM | O=C(O)c1ccc(CCCc2c(CCNS(=O)(=O)Cc3ccccc3-c3cccnc3)n(C(c3ccccc3)c3ccccc3)c3ccc(Cl)cc23)cc1 [Example 31, 4-{3-[5-chloro-1-(diphenylmethyl)-2-(2-{[(2-pyridin-3-ylbenzyl)sulfonyl]amino}ethyl)-1H-indol-3-yl]propyl}benzoic acid] | –
10 | 0.02 µM | 0.022 µM | Cc1noc(C)c1-c1ccccc1CS(=O)(=O)NCCc1c(CCCc2ccc(C(=O)O)cc2)c2cc(Cl)ccc2n1C(c1ccccc1)c1ccccc1 [Example 33, 4-{3-[5-chloro-2-[2-({[2-(3,5-dimethylisoxazol-4-yl)benzyl]sulfonyl}amino)ethyl]-1-(diphenylmethyl)-1H-indol-3-yl]propyl}benzoic acid] | –
11 | 0.07 µM | 0.031 µM | O=C(O)c1ccc(CCCc2c(CCNS(=O)(=O)Cc3ccccc3-c3ccccc3OC(F)(F)F)n(C(c3ccccc3)c3ccccc3)c3ccc(Cl)cc23)cc1 [Example 36, 4-[3-(5-chloro-1-(diphenylmethyl)-2-{2-[({[2′-(trifluoromethoxy)biphenyl-2-yl]methyl}sulfonyl)amino]ethyl}-1H-indol-3-yl)propyl]benzoic acid] | –
12 | 0.02 µM | 0.068 µM | CC(c1ccccc1C(F)(F)F)S(=O)(=O)NCCc1c(CCS(=O)(=O)c2ccc(CCC(=O)O)cc2)c2cc(Cl)ccc2n1C(c1ccccc1)c1ccccc1 (centres unmarked) [Example 39, 3-(4-{[2-(5-chloro-1-(diphenylmethyl)-2-{2-[({1-[2-(trifluoromethyl)phenyl]ethyl}sulfonyl)amino]ethyl}-1H-indol-3-yl)ethyl]sulfonyl}phenyl)propanoic acid] | –
13 | 0.06 µM | 0.072 µM | O=C(O)c1ccc(CCCc2c(CCNS(=O)(=O)Cc3ccccc3O)n(C(c3ccccc3)c3ccccc3)c3ccc(Cl)cc23)cc1 [Example 40, 4-{3-[5-chloro-1-(diphenylmethyl)-2-(2-{[(2-hydroxybenzyl)sulfonyl]amino}ethyl)-1H-indol-3-yl]propyl}benzoic acid] | –
14 | – | 0.022 µM | O=C(O)c1ccc(CCCc2c(CCNS(=O)(=O)Cc3ccccc3-c3cccc4ncccc34)n(C(c3ccccc3)c3ccccc3)c3ccc(Cl)cc23)cc1 [Example 41, 4-{3-[5-chloro-1-(diphenylmethyl)-2-(2-{[(2-quinolin-5-ylbenzyl)sulfonyl]amino}ethyl)-1H-indol-3-yl]propyl}benzoic acid] | protection of cultured neurons from OGD-induced cell death [3]: effective in protecting cultured neurons from OGD-induced cell death; percent cell death (lactate dehydrogenase release), Avg. ([3]; 0.1 μM): 40%; percent cell death (lactate dehydrogenase release), Avg. ([3]; 0.3 μM): 33%; percent cell death (lactate dehydrogenase release), Avg. ([3]; 1 μM): 30%; percent cell death (lactate dehydrogenase release), Avg. ([3]; 3 μM): 24%
